Earlier results, collected in patent US7456204B2, “Cyclohexylglycine derivatives as dipeptidyl peptidase inhibitors for the treatment or prevention of diabetes” (Merck & Co., Inc., priority 2003, dated 2008).

Experiments:
DP-IV = biological target: T1, DP-IV (Homo sapiens, UniProt P27487)
T1 construct: GRF is rapidly degraded in plasma to GRF[3-44]

hematopoiesis = conditions: mouse, cyclophosphamide-induced neutropenia
[1] = test system: cardiac allograft survival; conditions: rats; from day 7 to day 14

T1 sequence (P27487 39-766 limits assumed): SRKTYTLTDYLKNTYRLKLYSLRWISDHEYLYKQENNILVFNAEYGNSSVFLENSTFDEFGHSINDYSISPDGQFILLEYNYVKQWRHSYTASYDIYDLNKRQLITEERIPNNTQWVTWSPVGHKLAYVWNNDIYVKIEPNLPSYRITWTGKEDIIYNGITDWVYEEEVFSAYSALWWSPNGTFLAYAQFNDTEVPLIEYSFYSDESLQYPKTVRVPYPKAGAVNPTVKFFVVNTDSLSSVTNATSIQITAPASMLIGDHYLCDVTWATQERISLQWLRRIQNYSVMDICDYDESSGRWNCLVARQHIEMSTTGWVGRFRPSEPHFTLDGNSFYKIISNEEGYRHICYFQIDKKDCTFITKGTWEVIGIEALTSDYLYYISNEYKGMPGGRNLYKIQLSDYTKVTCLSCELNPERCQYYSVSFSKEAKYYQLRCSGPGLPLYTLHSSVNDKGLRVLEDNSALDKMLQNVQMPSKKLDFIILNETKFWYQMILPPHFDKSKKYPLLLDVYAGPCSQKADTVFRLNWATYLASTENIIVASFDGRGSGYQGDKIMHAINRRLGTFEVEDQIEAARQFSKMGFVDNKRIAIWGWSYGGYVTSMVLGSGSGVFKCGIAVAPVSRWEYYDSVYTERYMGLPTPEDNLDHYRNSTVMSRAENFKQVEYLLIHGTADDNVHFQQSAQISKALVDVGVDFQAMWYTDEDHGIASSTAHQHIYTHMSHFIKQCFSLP

CC[C@H](C)[C@H](N)C(=O)N1CCC[C@H]1C(=O)N[C@H](C(=O)O)[C@@H](C)CC [diprotin A]
degradation of GRF in plasma to GRF[3-44] (DP-IV): prevented

CC(C)[C@H](N)C(=O)N1CCC[C@H]1B(O)O [Val-Boro-Pro]
hematopoiesis (hematopoiesis): stimulated hematopoiesis

CC(C)N1CCC(c2ccccc2)(c2ccccc2)CC1 [Prodipine, Pro-Pro-diphenyl-phosphonate]
cardiac allograft survival [1]: double cardiac allograft survival
